From EP1680415B1, “PYRROLIDINYL UREA DERIVATIVES AS ANGIOGENESIS INHIBITORS” (ABBOTT LABORATORIES, priority 2003, dated 2005)

Test system: HMVEC
Test: human microvascular endothelial (HMVEC) migration assay
Type: cell-based
Settings: Inhibition of HMVEC migration, activators 15 ng/mL bFGF/VEGF, 4 hours at 37 °C, compared to a positive control; for inhibition at 0.0001 µM / inhibition at 0.001 µM / inhibition at 10 pM: Homo sapiens; for inhibition at 10 pM: 0.01 nM
Experimental: The human microvascular endothelial (HMVEC) migration assay was run according to the procedure of S. S. Tolsma, O. V. Volpert, D. J. Good, W. F. Frazier, P. J. Polverini and N. Bouck, J. Cell Biol. 122, 497-511 (1993).
The HMVEC migration assay was carried out using Human Microvascular Endothelial Cells-Dermal (single donor) and Human Microvascular Endothelial Cells, (neonatal). The BCE or HMVEC cells were starved overnight in DME containing 0.01% bovine serum albumin (BSA). Cells were then harvested with trypsin and resuspended in DME with 0.01 % BSA at a concentration of 1.5 X 10^6 cells per mL. Cells were added to the bottom of a 48 well modified Boyden chamber (Nucleopore Corporation, Cabin John, MD). The chamber was assembled and inverted, and cells were allowed to attach for 2 hours at 37 °C to polycarbonate chemotaxis membranes (5 µm pore size) that had been soaked in 0.01 % gelatin overnight and dried. The chamber was then reinverted, and test substances (total volume of 50 µL), including activators, 15 ng/mL bFGF/VEGF, were added to the wells of the upper chamber. The apparatus was incubated for 4 hours at 37 °C. Membranes were recovered, fixed and stained (Diff Quick, Fisher Scientific) and the number of cells that had migrated to the upper chamber per 3 high power fields counted. Background migration to DME + […] was subtracted and the data reported as the number of cells migrated per 10 high power fields (400X) or, when results from multiple experiments were combined, as the percent inhibition of migration compared to a positive control.

Row | Compound | inhibition at 0.0001 µM (0.1 nM) [%] | also measured
1 | Cc1ccc(C(=O)N2CC[C@@H](NC(=O)N[C@H](CO)CC(C)C)C2)cn1 [Example 23, N-[(1S)-1-(hydroxymethyl)-3-methylbutyl]-N'-{(3R)-1-[(6-methyl-3-pyridinyl)carbonyl]-3-pyrrolidinyl}urea] | 93 | 
2 | Cc1ccc(C(=O)N2CC[C@@H](NC(=O)N3CCN(CC(=O)N4CCCCC4)CC3)C2)cn1 [Example 80, N-{(3R)-1-[(6-methylpyridin-3-yl)carbonyl]pyrrolidin-3-yl}-4-(2-oxo-2-piperidin-1-ylethyl)piperazine-1-carboxamide] | 73 | 
3 | CCN(CC)C(=O)C1CCCN(C(=O)N[C@@H]2CCN(C(=O)c3ccc(C)nc3)C2)C1 (stereo partly drawn) [Example 55, N^3,N^3-diethyl-N^1-{(3R)-1-[(6-methylpyridin-3-yl)carbonyl]pyrrolidin-3-yl}piperidine-1,3-dicarboxamide] |  | inhibition at 0.001 µM (1 nM): 93%
4 | CCCCN(CCCC)C(=O)N[C@@H]1CCN(C(=O)c2ccc(C)nc2)C1 [Example 66, N,N-dibutyl-N'-{(3R)-1-[(6-methylpyridin-3-yl)carbonyl]pyrrolidin-3-yl} urea] | 84 | 
5 | CCCN(C(=O)N[C@@H]1CCN(C(=O)c2ccc(C)nc2)C1)C(C)CC (stereo partly drawn) [Example 65, N-(sec-butyl)-N'-{(3R)-1-[(6-methylpyridin-3-yl)carbonyl]pyrrolidin-3-yl}-N-propylurea] |  | inhibition at 0.001 µM (1 nM): 98%
6 | Cc1ccc(C(=O)N2CC[C@@H](NC(=O)NCC3CCOC3)C2)cn1 (stereo partly drawn) [Example 14, N-{(3R)-1-[(6-methyl-3-pyridinyl)carbonyl]-3-pyrrolidinyl}-N'-(tetrahydro-3-furanylmethyl)urea] | 57 | 
7 | CCCCN(Cc1ccccc1)C(=O)N[C@@H]1CCN(C(=O)c2ccc(C)nc2)C1 [Example 52, N-benzyl-N-butyl-N'-{(3R)-1-[(6-methylpyridin-3-yl)carbonyl]pyrrolidin-3-yl}urea] |  | inhibition at 0.001 µM (1 nM): 80%
8 | COCCN(CCOC)C(=O)N[C@@H]1CCN(C(=O)c2ccc(C)nc2)C1 [Example 73, N,N-bis(2-methoxyethyl)-N'-{(3R)-1-[(6-methylpyridin-3-yl)carbonyl]pyrrolidin-3-yl}urea] | 71 | 
9 | Cc1ccc(C(=O)N2CC[C@@H](NC(=O)NCCCOCC(C)C)C2)c(Cl)n1 [Example 40, N-{(3R)-1-[(2-chloro-6-methylpyridin-3-yl)carbonyl]pyrrolidin-3-yl}-N'-(3-isobutoxypropyl)urea] | 72 | 
10 | Cc1ccc(C(=O)N2CC[C@@H](NC(=O)N[C@@H](CO)CC(C)C)C2)cn1 [Example 24, N-[(1R)-1-(hydroxymethyl)-3-methylbutyl]-N'-{(3R)-1-[(6-methyl-3-pyridinyl)carbonyl]-3-pyrrolidinyl}urea] | 70 | 
11 | Cc1ccc(C(=O)N2CC[C@@H](NC(=O)N3CCN(c4ccccn4)CC3)C2)cn1 [Example 90, N-{(3R)-1-[(6-methylpyridin-3-yl)carbonyl]pyrrolidin-3-yl}-4-pyridin-2-ylpiperazine-1-carboxamide] |  | inhibition at 10 pM: 52%
12 | COc1ccc(CCN(C)C(=O)N[C@@H]2CCN(C(=O)c3ccc(C)nc3Cl)C2)cc1OC [Example 45, N'-{(3R)-1-[(2-chloro-6-methylpyridin-3-yl)carbonyl]pyrrolidin-3-yl}-N-[2-(3,4-dimethoxyphenyl)ethyl]-N-methylurea] | 82 | 
13 | Cc1ccc(C(=O)N2CC[C@@H](NC(=O)N(C)CCC(C)C)C2)cn1 [Example 61, N-methyl-N-(3-methylbutyl)-N'-{(3R)-1-[(6-methylpyridin-3-yl)carbonyl]pyrrolidin-3-yl}urea] | 66 | 
14 | CCCN(C(=O)N[C@@H]1CCN(C(=O)c2ccc(C)nc2)C1)C(C)C [Example 64, N-isopropyl-N'-{(3R)-1-[(6-methylpyridin-3-yl)carbonyl]pyrrolidin-3-yl}-N-propylurea] | 70 | 
15 | Cc1ccc(C(=O)N2CC[C@@H](NC(=O)N[C@@H](CO)c3ccccc3)C2)cn1 [Example 32, N-[(1R)-2-hydroxy-1-phenylethyl]-N'-{(3R)-1-[(6-methyl-3-pyridinyl)carbonyl]-3-pyrrolidinyl} urea] | 85 | 
16 | Cc1ccc(C(=O)N2CC[C@@H](NC(=O)N3CCN(c4ccc(F)cc4)CC3)C2)cn1 [Example 92, 4-(4-fluorophenyl)-N-{(3R)-1-[(6-methylpyidin-3-yl)carbonyl]pyrrolidin-3-yl}piperazine-1-carboxamide] |  | inhibition at 10 pM: 67%

Row | Compound | inhibition at 0.0001 µM (0.1 nM) [%] | also measured
17 | Cc1ccc(C(=O)N2CC[C@@H](NC(=O)N3CC(C)OC(C)C3)C2)cn1 (stereo partly drawn) [Example 88, 2,6-dimethyl-N-{(3R)-1-[(6-methylpyridin-3-yl)carbonyl]pyrrolidin-3-yl}morpholine-4-carboxamide] |  | inhibition at 10 pM: 81%
18 | Cc1ccc(C(=O)N2CC[C@@H](NC(=O)NCCCOC(C)C)C2)c(Cl)n1 [Example 39, N-{(3R)-1-[(2-chloro-6-methylpyridin-3-yl)carbonyl]pyrrolidin-3-yl}-N'-(3-isopropoxypropyl)urea] |  | inhibition at 0.001 µM (1 nM): 72%
19 | Cc1ccc(C(=O)N2CC[C@@H](NC(=O)N3CCCC3)C2)cn1 [Example 2, N-{(3R)-1-[(6-methyl-3-pyridinyl)carbonyl]-3-pyrrolidinyl}-1-pyrrolidinecarboxamide] | 98 | 
20 | Cc1ccc(C(=O)N2CC[C@@H](NC(=O)NCC(O)CO)C2)cn1 (stereo partly drawn) [Example 27, N-(2,3-dihydroxypropyl)-N'-{(3R)-1-[(6-methyl-3-pyridinyl)carbonyl]-3-pyrrolidinyl}urea] | 83 | 
21 | Cc1ccc(C(=O)N2CC[C@@H](NC(=O)N(C)CCc3ccccc3)C2)c(Cl)n1 [Example 44, N'-{(3R)-1-[(2-chloro-6-methylpyridin-3-yl)carbonyl]pyrrolidin-3-yl}-N-methyl-N-(2-phenylethyl)urea] | 80 | 
22 | Cc1ccc(C(=O)N2CC[C@@H](NC(=O)N(CCO)Cc3ccccc3)C2)cn1 [Example 82, N-benzyl-N-(2-hydroxyethyl)-N'-{(3R)-1-[(6-methylpyridin-3-yl)carbonyl]pyrrolidin-3-yl}urea] | 57 | 
23 | CCCC(C)NC(=O)N[C@@H]1CCN(C(=O)c2ccc(C)nc2)C1 (stereo partly drawn) [Example 8, N-(1-methylbutyl)-N'-{(3R)-1-[(6-methyl-3-pyridinyl)carbonyl]-3-pyrrolidinyl}urea] | 56 | 
24 | CCOCCCNC(=O)N[C@@H]1CCN(C(=O)c2ccc(C)nc2Cl)C1 [Example 38, N-{(3R)-1-[(2-chloro-6-methylpyridin-3-yl)carbonyl]pyrrolidin-3-yl}-N'-(3-ethoxypropyl)urea] | 99 | 
25 | Cc1ccc(C(=O)N2CC[C@@H](NC(=O)NCC#N)C2)cn1 [Example 15, N-(cyanomethyl)-N'-{(3R)-1-[(6-methyl-3-pyridinyl)carbonyl]-3-pyrrolidinyl}urea] | 64 | 
26 | Cc1ccc(C(=O)N2CC[C@@H](NC(=O)N3CCC(n4c(=O)[nH]c5ccccc54)CC3)C2)cn1 [Example 56, N-{(3R)-1-[(6-methylpyridin-3-yl)carbonyl]pyrrolidin-3-yl}-4-(2-oxo-2,3-dihydro-1H-benzimidazol-1-yl)piperidine-1-carboxamide] | 86 | 
27 | N-{(3R)-1-[(2-chloro-6-methylpyridin-3-yl)carbonyl]pyrrolidin-3-yl}-1,3,3-trimethyl-6-azabicyclo[3.2.1]octane-6-carboxamide [Example 36] |  | % Inhibition @ 1 nM (1 nM): 64%
28 | CCCCN(CCCC)C(=O)N[C@@H]1CCN(C(=O)c2ccc(C)nc2Cl)C1 [Example 34, N,N-dibutyl-N'-{(3R)-1-[(2-chloro-6-methylpyridin-3-yl)carbonyl]pyrrolidin-3-yl}urea] |  | inhibition at 0.001 µM (1 nM): 50%
29 | Cc1ccc(C(=O)N2CC[C@@H](NC(=O)NC3CCC(C)CC3)C2)cn1 (stereo partly drawn) [Example 20, N-(4-methylcyclohexyl)-N'-{(3R)-1-[(6-methyl-3-pyridinyl)carbonyl]-3-pyrrolidinyl}urea] | 67 | 
30 | Cc1ccc(C(=O)N2CC[C@@H](NC(=O)N[C@@H](CO)c3ccccc3)C2)c(Cl)n1 [Example 37, N-{(3R)-1-[(2-chloro-6-methylpyridin-3-yl)carbonyl]pynolidin-3-yl}-N'-[(1R)-2-hydroxy-1-phenylethyl]urea] |  | % Inhibition @ 0.1 nM (0.1 nM): 73%
31 | Cc1ccc(C(=O)N2CC[C@@H](NC(=O)N(C)CCc3ccccc3)C2)cn1 [Example 75, N-methyl-N'-{(3R)-1-[(6-methylpyridin-3-yl)carbonyl]pyrrolidin-3-yl}-N-(2-phenylethyl)urea] |  | inhibition at 0.001 µM (1 nM): 76%
32 | COCC(C)NC(=O)N[C@@H]1CCN(C(=O)c2ccc(C)nc2)C1 (stereo partly drawn) [Example 12, N-(2-methoxy-1-methylethyl)-N'-{(3R)-1-[(6-methyl-3-pyridinyl)carbonyl]-3-pyrrolidinyl}urea] | 77 | 
